# Reference: patent publication US20250109146A1, “BRIDGED RING-SUBSTITUTED HETEROARYL-PYRAN DERIVATIVE, AND USE THEREOF” (priority 2022, published 2025)
# Counter-ions that a name gives are not always drawn.
# Tests used:
# [1] = system: p-ERK in KRAS^G12D mutant AGS cells; experiment: Assay of p-ERK inhibition in AGS cells (HTRF); type: cell-based; settings: Homo sapiens, 3 hours incubation with compound
# Experimental: • 1) AGS cells were inoculated in a transparent 96-well cell culture plate, and each well contained 80 μL of cell suspension and 10000 cells. […] 80 μL of medium containing 0.02% serum was added to each well. The cell plate was incubated in a carbon dioxide incubator at 37° C. overnight; • 3) 2 μL of the compound was weighed and added to 78 μL of the cell medium. After the mixture was mixed thoroughly, 20 μL of the solution of compound was weighed and added to the corresponding well of the cell plate. […] 50 μL of 1× cell lysate was added to each well. […] The mixture was incubated at room temperature for at least 4 hours; • 7) After completion of the incubation, HTRF was read with multi-label analyzer: excitation: 320 nm, emission: 615 nm, 665 nm; • 8). IC50 of the compound to be assayed was calculated. […]
# • 1) AGS cells were inoculated in a transparent 96-well cell culture plate, and each well contained 80 μL of cell suspension and 10000 cells. […] The mixture was incubated at room temperature for at least 4 hours; • 7) After completion of the incubation, HTRF was read with multi-label analyzer: excitation: 320 nm, emission: 615 nm, 665 nm; • 8). IC50 of the compound to be assayed was calculated.
# [2] = system: p-ERK in KRAS^G12D mutant AsPC-1 cells; experiment: Assay of p-ERK inhibition in AsPC-1 cells (HTRF); type: cell-based; settings: HTRF method, 1 hour incubation with compound
# Experimental: • 1) ASPC-1 cells were inoculated in a transparent 96-well cell culture plate, and each well contained 80 μL of cell suspension and 8000 cells. The cell plate was inoculated in a carbon dioxide incubator at 37° C. overnight; • 2) After completion of the incubation, the cell supernatant was discarded. […] 2 μL of the compound was weighed and added to 78 μL of a cell starvation medium. After the mixture was mixed thoroughly, 20 μL of the solution of compound was weighed and added to the corresponding well of the cell plate. […] 50 μL of cell lysate was added to each well. […] The mixture was incubated at room temperature for 4 hours; • 7) After completion of the incubation, HTRF was read with multi-label analyzer: excitation: 320 nm, emission: 615 nm, 665 nm.
Compound,IC50 [1] [nM],IC50 [2] [nM]
C#Cc1c(F)ccc2cc(N)cc(C3Cc4nc(OC[C@@]56CCCN5C[C@H](F)C6)nc(N5CC6CCC(C5)N6)c4CO3)c12 (stereo partly drawn) [Compound 3 hydrochloride],64.6,–
CC#Cc1cc(N)c(F)c([C@@H]2Cc3nc(OC[C@]45C=CCN4CCC5)nc(N4CC5CCC(C4)N5)c3CO2)c1C(F)(F)F [Compound 10 hydrochloride],–,1.1
CC#Cc1cc(N)c(F)c([C@H]2Cc3nc(OC[C@]45CCCN4C/C(=C\F)C5)nc(N4CC5CCC(C4)N5)c3CO2)c1C(F)(F)F [Compound 11 formate],–,0.9
